# Laboratory results taken from article PMC6385671, “An integrated-molecular-beacon based multiple exponential strand displacement amplification strategy for ultrasensitive detection of DNA methyltransferase activity” (Chemical Science, 2018).
# Molecular target: Dam MTase (Escherichia coli, UniProt P0AEE8)
# Assay: coupled fluorescence assay (molecular beacon methylation, DpnI cleavage, strand displacement amplification) with commercial Dam MTase
# Type: biochemical
# Sequence of Dam MTase (P0AEE8 whole entry): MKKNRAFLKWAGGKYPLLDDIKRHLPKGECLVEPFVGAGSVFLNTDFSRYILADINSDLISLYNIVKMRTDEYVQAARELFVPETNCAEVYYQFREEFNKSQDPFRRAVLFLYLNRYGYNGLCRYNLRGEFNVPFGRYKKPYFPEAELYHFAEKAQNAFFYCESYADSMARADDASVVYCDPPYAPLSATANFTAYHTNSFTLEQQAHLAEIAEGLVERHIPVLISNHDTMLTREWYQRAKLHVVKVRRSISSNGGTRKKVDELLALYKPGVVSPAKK
smiles,measurement,value
O=c1[nH]cc(F)c(=O)[nH]1 [5-fluorouracil],IC50,710 nM
